Measurements from US8846730B2, “Compounds as cannabinoid receptor ligands” (priority 2008, dated 2014).
Where two headings read alike, the source gives them in different places.

Tests used:
human CB2 receptors = human CB2 receptors (Homo sapiens (Human), UniProt P34972); assay: human CB2 radioligand binding assay ([3H]CP 55,940 competition)
Method: (§1) The CB1 and CB2 radioligand binding assays described herein are utilized to ascertain the affinity of compounds of the present application for binding to CB2 relative to CB1 receptors.
HEK293 cells stably expressing human CB2 receptors were grown until a confluent monolayer was formed. Briefly, the cells were harvested and homogenized in TE buffer (50 mM Tris-HCl, 1 mM MgCl2, and 1 mM EDTA) using a polytron for 2×10 second bursts in the presence of protease inhibitors, followed by centrifugation at 45,000×g for 20 minutes. The final membrane pellet was re-homogenized in storage buffer (50 mM Tris-HCl, 1 mM MgCl2, and 1 mM EDTA and 10% sucrose) and frozen at −78° C. until used. Saturation binding reactions were initiated by the addition of membrane preparation (protein concentration of 5 μg/well for human CB2) into wells of a deep well plate containing [^3H]CP 55,940 (120 Ci/mmol, a nonselective CB agonist commercially available from Tocris) in assay buffer (50 mM Tris, 2.5 mM EDTA, 5 mM MgCl2, and 0.5 mg/mL fatty acid free BSA, pH 7.4). After 90 min incubation at 30° C., binding reaction was terminated by the addition of 300 μL/well of cold assay buffer followed by rapid vacuum filtration through a UniFilter-96 GF/C filter plates (pre-soaked in 1 mg/mL BSA for 2 hours). The bound activity was counted in a TopCount using Microscint-20. Saturation experiments were conducted with twelve concentrations of [^3H]CP 55,940 ranging from 0.01 to 8 nM. Competition experiments were conducted with 0.5 nM [^3H]CP 55,940 and five concentrations (0.01 nM to 10 μM) of displacing ligands. The addition of 10 μM unlabeled CP 55,940 (Tocris, Ellisville, Mo.) was used to assess nonspecific binding.

rat CB2 receptors = rat CB2 receptors (Rattus norvegicus (Rat), UniProt Q9QZN9); assay: rat CB2 radioligand binding assay ([3H]CP 55,940 competition); details: HEK293 membranes, 0.5 nM [3H]CP 55,940
Method: as §1
HEK293 cells stably expressing rat CB2 receptors were grown until a confluent monolayer was formed. Briefly, the cells were harvested and homogenized in TE buffer (50 mM Tris-HCl, 1 mM MgCl2, and 1 mM EDTA) using a polytron for 2×10 second bursts in the presence of protease inhibitors, followed by centrifugation at 45,000×g for 20 minutes. The final membrane pellet was re-homogenized in storage buffer (50 mM Tris-HCl, 1 mM MgCl2, and 1 mM EDTA and 10% sucrose) and frozen at −78° C. until used. Saturation binding reactions were initiated by the addition of membrane preparation (protein concentration of 20 μg/well for rat CB2) into wells of a deep well plate containing [^3H]CP 55,940 (120 Ci/mmol, a nonselective CB agonist commercially available from Tocris) in assay buffer (50 mM Tris, 2.5 mM EDTA, 5 mM MgCl2, and 0.5 mg/mL fatty acid free BSA, pH 7.4). After 45 min incubation at 30° C., binding reaction was terminated by the addition of 300 μl/well of cold assay buffer followed by rapid vacuum filtration through a UniFilter-96 GF/C filter plates (pre-soaked in 1 mg/mL BSA for 2 hours). The bound activity was counted in a TopCount using Microscint-20. Saturation experiments were conducted with twelve concentrations of [^3H]CP 55,940 ranging from 0.01 to 8 nM. Competition experiments were conducted with 0.5 nM [^3H]CP 55,940 and five concentrations of displacing ligands selected from the range of 0.01 nM to 10 μM. The addition of 10 μM unlabeled CP 55,940 (Tocris, Ellisville, Mo.) was used to assess nonspecific binding.

[1] = target: rat CB1 receptors (HEK cells) (Rattus norvegicus (Rat), UniProt P20272); assay: rat CB1 cyclase functional assay (HitHunter cAMP); type: cell-based
Method: The cyclase functional assays were performed using the HitHunter™ cAMP assay kit from DiscoveRx (Fremont, Calif.) according to vendor's protocol. Briefly, HEK cells expressing CB2 or CB1 receptors (rat or human) were detached using cell dissociation buffer (Invitrogen, Carlsbad, Calif.), dispersed and placed in suspension at 10,000 cells per well in 96 well plates prior to the assay. Cell suspensions were incubated at 37° C. for 20 min with variable concentrations of test ligands and or 10 μM CP 55,940-positive control in the presence of a fixed concentration of forskolin (18 μM for rat CB2 and 37 μM for rat CB1) in Dulbescco's phosphate-buffered saline (Invitrogen, Carlsbad, Calif.) supplemented with bovine serum albumin (0.01% final concentration). The reactions were terminated by the addition of lysis buffer and the luminescence was detected following the procedure according to the manufacturer's instructions. EC50 values were calculated using sigmoidal dose-response curve fitting from Prism (GraphPad).

[2] = HEK293 membranes, 0.5 nM [3H]CP 55,940, read-out: human CB2 (Ki)
[3] = HEK cells, forskolin 37 μM, read-out: rCB1 cyclase (EC50)

Sequence of human CB2 receptors (P34972 whole entry): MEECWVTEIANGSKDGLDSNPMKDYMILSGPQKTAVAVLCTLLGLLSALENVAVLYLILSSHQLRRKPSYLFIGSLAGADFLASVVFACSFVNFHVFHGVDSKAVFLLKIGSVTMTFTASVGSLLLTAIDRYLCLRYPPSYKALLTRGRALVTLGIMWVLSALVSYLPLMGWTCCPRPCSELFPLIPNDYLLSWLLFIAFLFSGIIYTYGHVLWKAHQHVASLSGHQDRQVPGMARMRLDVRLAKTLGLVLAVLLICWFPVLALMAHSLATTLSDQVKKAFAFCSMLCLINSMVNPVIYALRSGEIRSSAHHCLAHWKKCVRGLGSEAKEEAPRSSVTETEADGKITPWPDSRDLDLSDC
Sequence of rat CB1 receptors (HEK cells) (P20272 whole entry): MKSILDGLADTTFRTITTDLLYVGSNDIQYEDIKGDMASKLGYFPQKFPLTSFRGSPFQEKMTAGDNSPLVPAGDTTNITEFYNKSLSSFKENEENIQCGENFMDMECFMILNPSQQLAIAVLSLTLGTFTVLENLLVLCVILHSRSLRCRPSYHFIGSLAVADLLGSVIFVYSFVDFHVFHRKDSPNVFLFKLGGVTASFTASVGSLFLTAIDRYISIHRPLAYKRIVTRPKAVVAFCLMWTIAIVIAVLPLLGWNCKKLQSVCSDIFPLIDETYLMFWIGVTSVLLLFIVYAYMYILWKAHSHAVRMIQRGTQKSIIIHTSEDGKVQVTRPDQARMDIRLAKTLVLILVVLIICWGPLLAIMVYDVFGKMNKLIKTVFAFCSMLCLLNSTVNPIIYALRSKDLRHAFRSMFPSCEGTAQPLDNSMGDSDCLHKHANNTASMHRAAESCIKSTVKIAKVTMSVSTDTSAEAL

## CC(C)(C)NNc1ccc(C(F)(F)F)cc1C(=O)/N=c1\sc(C(C)(C)C)cn1C[C@H]1CCCO1 [Example 39, 2-(2-tert-butylhydrazino)-N-[(2Z)-5-tert-butyl-3-[(2R)-tetrahydrofuran-2-ylmethyl]-1,3-thiazol-2(3H)-ylidene]-5-(trifluoromethyl)benzamide]
Human CB2 receptors; [2]
  Ki: 3.7 nM
Rat CB2 receptors
  Ki: 1.7 nM
[1]; [3]
  EC50: > 27000 nM

## CC(C)(C)OC(=O)NNc1ccc(C(F)(F)F)cc1C(=O)/N=c1\sc(C(C)(C)C)cn1C[C@H]1CCCO1 [Example 40, tert-butyl 2-[2-({[(2Z)-5-tert-butyl-3-[(2R)-tetrahydrofuran-2-ylmethyl]-1,3-thiazol-2(3H)-ylidene]amino}carbonyl)-4-(trifluoromethyl)phenyl]hydrazinecarboxylate]
Human CB2 receptors
  Ki: 0.4 nM
Rat CB2 receptors
  Ki: 0.3 nM

## CC(=O)N1CCC[C@H]1COc1ccc(C(F)(F)F)cc1C(=O)/N=c1\sc(C(C)(C)C)cn1C[C@H]1CCCO1 [Example 47, 2-{[(2S)-1-acetylpyrrolidin-2-yl]methoxy}-N-[(2Z)-5-tert-but 1-3[(2R)-tetrahydrofuran-2-ylmethyl]-1,3-thiazol-2(3H)-ylidene]-5-(trifluoromethyl)benzamide]
Human CB2 receptors; [2]
  Ki: 107 nM
Rat CB2 receptors
  Ki: 24 nM

## CN1CCC[C@H]1CNc1ccc(C(F)(F)F)cc1C(=O)/N=c1\sc(C(C)(C)C)cn1C[C@H]1CCCO1 [Example 55, N-[(2Z)-5-tert-butyl-3-[(2R)-tetrahydrofuran-2-ylmethyl]-1,3-thiazol-2(3H)-ylidene]-2-({[(2S)-1-methylpyrrolidin-2-yl]methyl}amino)-5-(trifluoromethyl)benzamide]
Human CB2 receptors; [2]
  Ki: 36 nM
Rat CB2 receptors
  Ki: 8.1 nM

## CN1CCC[C@H]1COc1ccc(C(F)(F)F)cc1C(=O)/N=c1\scc(C(C)(C)C)n1C[C@H]1CCCO1 [Example 57, N-[(2Z)-4-tert-butyl-3-[(2R)-tetrahydrofuran-2-ylmethyl]-1,3-thiazol-2(3H)-ylidene]-2-{[(2S)-1-methylpyrrolidin-2-yl]methoxy}-5-(trifluoromethyl)benzamide]
Human CB2 receptors; [2]
  Ki: 289 nM
Rat CB2 receptors
  Ki: 15 nM

## CC(C)(C)NOc1ccc(C(F)(F)F)cc1C(=O)/N=c1\sc(C(C)(C)C)cn1C[C@H]1CCCO1 [Example 65, 2-[(tert-butylamino)oxy]-N-[(2Z)-5-tert-butyl-3-[(2R)-tetrahydrofuran-2-ylmethyl]-1,3-thiazol-2(3H)-ylidene]-5-(trifluoromethyl)benzamide]
Human CB2 receptors; [2]
  Ki: 1.8 nM
Rat CB2 receptors
  Ki: 0.8 nM
[1]
  EC50: > 27000 nM

## Cn1cncc1COc1ccc(C(F)(F)F)cc1C(=O)/N=c1\sc(C(C)(C)C)cn1C[C@H]1CCCO1 [Example 67, N-[(2Z)-5-tert-butyl-3-[(2R)-tetrahydrofuran-2-ylmethyl]-1,3-thiazol-2(3H)-ylidene]-2-[(1-methyl-1H-imidazol-5-yl)methoxy]-5-(trifluoromethyl)benzamide]
Human CB2 receptors; [2]
  Ki: 115 nM
Rat CB2 receptors
  Ki: 13 nM
[1]; [3]
  EC50: > 27000 nM

## CC(C)(C)/C(COc1ccc(C(F)(F)F)cc1C(=O)/N=c1\sc(C(C)(C)C)cn1C[C@H]1CCCO1)=N/O [Example 70, N-[(2Z)-5-tert-butyl-3-[(2R)-tetrahydrofuran-2-ylmethyl]-1,3-thiazol-2(3H)-ylidene]-2-{[(2Z)-2-(hydroxyimino)-3,3-dimethylbutyl]oxy}-5-(trifluoromethyl)benzamide]
Human CB2 receptors; [2]
  Ki: 12 nM
Rat CB2 receptors
  Ki: 8.1 nM
[1]
  EC50: > 27000 nM

## CC(C)(C)c1cn(C[C@H]2CCCO2)/c(=N/C(=O)c2cc(C(F)(F)F)ccc2OCC(C)(C)n2cccc2)s1 [Example 74, N-[(2Z)-5-tert-butyl-3-[(2R)-tetrahydrofuran-2-ylmethyl]-1,3-thiazol-2(3H)-ylidene]-2-[2-methyl-2-(1H-pyrrol-1-yl)propoxy]-5-(trifluoromethyl)benzamide]
Human CB2 receptors; [2]
  Ki: 34 nM
Rat CB2 receptors
  Ki: 6.6 nM

## CC(=O)NOc1ccc(C(F)(F)F)cc1C(=O)/N=c1\sc(C(C)(C)C)cn1C[C@H]1CCCO1 [Example 75, 2-[(acetylamino)oxy]-N-[(2Z)-5-tert-butyl-3-[(2R)-tetrahydrofuran-2-ylmethyl]-1,3-thiazol-2(3H)-ylidene]-5-(trifluoromethyl)benzamide]
Human CB2 receptors; [2]
  Ki: 1.2 nM
Rat CB2 receptors
  Ki: 2.5 nM

## COCCn1cc(C(C)(C)C)s/c1=N\C(=O)c1cc(C(F)(F)F)ccc1ONC(C)(C)C [Example 76, 2-[(tert-butylamino)oxy]-N-[(2Z)-5-tert-butyl-3-(2-methoxyethyl)-1,3-thiazol-2(3H)-ylidene]-5-(trifluoromethyl)benzamide]
Human CB2 receptors
  Ki: 20 nM
Rat CB2 receptors
  Ki: 5.2 nM

## CC(CN1CCC[C@H]1COc1ccc(C(F)(F)F)cc1C(=O)/N=c1\sc(C(C)(C)C)cn1C[C@H]1CCCO1)=NO [Example 77, N-[(2Z)-5-tert-butyl-3-[(2R)-tetrahydrofuran-2-ylmethyl]-1,3-thiazol-2(3H)-ylidene]-2-({(2S)-1-[2-(hydroxyimino)propyl]pyrrolidin-2-yl}methoxy)-5-(trifluoromethyl)benzamide]
Human CB2 receptors; [2]
  Ki: 85 nM
Rat CB2 receptors
  Ki: 64 nM

## CCN(CC)Oc1ccc(C(F)(F)F)cc1C(=O)/N=c1\sc(C(C)(C)C)cn1C[C@H]1CCCO1 [Example 78, N-[(2Z)-5-tert-butyl-3-[(2R)-tetrahydrofuran-2-ylmethyl]-1,3-thiazol-2(3H)-ylidene]-2-[(diethylamino)oxy]-5-(trifluoromethyl)benzamide]
Human CB2 receptors; [2]
  Ki: 22 nM
Rat CB2 receptors
  Ki: 4.6 nM

## CC(C)NOc1ccc(C(F)(F)F)cc1C(=O)/N=c1\sc(C(C)(C)C)cn1C[C@H]1CCCO1 [Example 79, N-[(2Z)-5-tert-butyl-3-[(2R)-tetrahydrofuran-2-ylmethyl]-1,3-thiazol-2(3H)-ylidene]-2-[(isopropylamino)oxy]-5-(trifluoromethyl)benzamide]
Human CB2 receptors; [2]
  Ki: 0.3 nM
Rat CB2 receptors
  Ki: 0.5 nM

## C[C@@H](O)COc1ccc(C(F)(F)F)cc1C(=O)/N=c1\sc(C(C)(C)C)cn1C[C@H]1CCCO1 [Example 81, N-[(2Z)-5-tert-butyl-3-[(2R)-tetrahydrofuran-2-ylmethyl]-1,3-thiazol-2(3H)-ylidene]-2-{[(2R)-2-hydroxypropyl]oxy}-5-(trifluoromethyl)benzamide]
Human CB2 receptors; [2]
  Ki: 1.1 nM
Rat CB2 receptors
  Ki: 0.5 nM

## CC(COc1ccc(C(F)(F)F)cc1C(=O)/N=c1\sc(C(C)(C)C)cn1C[C@H]1CCCO1)=NOC(C)(C)C [Example 82]
Human CB2 receptors; [2]
  Ki: 4.9 nM
Rat CB2 receptors
  Ki: 1.7 nM

## CC(C)(C)c1cn(C[C@H]2CCCO2)/c(=N/C(=O)c2cc(C(F)(F)F)ccc2ON=C2CCCC2)s1 [Example 83, N-[(2Z)-5-tert-butyl-3-(2R)-(tetrahydrofuran-2-ylmethyl)-1,3-thiazol-2(3H)-ylidene]-2-[(cyclopentylideneamino)oxy]-5-(trifluoromethyl)benzamide]
Human CB2 receptors
  Ki: 0.5 nM
Rat CB2 receptors
  Ki: 1.2 nM

## CC(=O)C(C)=NOc1ccc(C(F)(F)F)cc1C(=O)/N=c1\sc(C(C)(C)C)cn1C[C@H]1CCCO1 [Example 84, N-[(2Z)-5-tert-butyl-3-[(2R)-tetrahydrofuran-2-ylmethyl]-1,3-thiazol-2(3H)-ylidene]-2-({[1-methyl-2-oxopropylidene]amino}oxy)-5-(trifluoromethyl)benzamide]
Human CB2 receptors; [2]
  Ki: 3.3 nM
Rat CB2 receptors
  Ki: 2.4 nM
